Test results published in patent publication US11261186B2, “Biaryl derivative as GPR120 agonist” (LG CHEM, LTD., priority 2014, dated 2022).

Biological target: T1, hGPR120 (Homo sapiens, UniProt Q5NUL3)
T1 construct: expressed in transfected cells; host or cells: CHO-K1
T1 sequence (Q5NUL3 1-361): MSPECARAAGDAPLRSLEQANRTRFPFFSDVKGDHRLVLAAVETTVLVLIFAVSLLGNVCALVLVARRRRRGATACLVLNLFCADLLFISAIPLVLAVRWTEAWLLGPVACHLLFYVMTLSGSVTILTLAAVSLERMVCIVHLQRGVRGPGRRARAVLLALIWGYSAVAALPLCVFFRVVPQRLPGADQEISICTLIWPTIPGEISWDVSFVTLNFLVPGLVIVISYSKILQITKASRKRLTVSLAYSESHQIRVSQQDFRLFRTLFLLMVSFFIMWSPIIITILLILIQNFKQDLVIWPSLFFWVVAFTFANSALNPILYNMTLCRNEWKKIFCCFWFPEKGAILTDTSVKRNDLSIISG
Test: Measurement of Activity of GPR120 Agonist (Cell-Based Assay), Calcium 5 dye fluorescence
Conditions: CHO-K1 cells expressing Ga16 and hGPR120
Procedure: CHO-K1 cells expressing Ga16 and hGPR120 were dispensed into each well of a 96-well plate (3×10^4 cells/100 μl/well) and then incubated in 5% CO2, 37° C. incubator for 18 hours. Each well was treated with 100 μl of Calcium 5 dye (Molecular Devices) solution including 2% DMSO and then incubated in 5% CO2, 37° C. incubator for 1 hour. Serially diluted GPR120 agonists were prepared to a final concentration of 0.5% DMSO in a 96-well plate. Each well was treated with 50 μl of the agonist compounds using Plexstation II, and then fluorescence was measured at Ex 485 nm and Em 525 nm.
Fluorescence increased by the serially diluted GPR120 agonists is calculated as a relative percent (%) value based on the fluorescence represented by the treatment of 1% DMSO only. […] The calculation of measurement was carried out by using statistical software (Prizm).
Activity is denoted based on the following criteria: […]

| Structure (SMILES) | EC50 |
| --- | --- |
| CC(CCCC(=O)O)c1c(F)cc(-c2ccccc2NC2CCCC2)cc1F (racemic) [Example 47, 5-(2′-cyclopentylamino-3,5-difluoro-bisphenyl-4-yl)hexanoic acid] | < 200 nM |
| CC(C)Sc1ncccc1-c1ccc2nc(CCC(=O)O)ccc2c1 [Example 1, 3-[6-(2-isopropylsulfanyl-pyridin-3-yl)-quinolin-2-yl]-propionic acid] | 200 to 2000 nM |
| CC(C)Sc1cccc(-c2ccc3nc(CCC(=O)O)ccc3c2)n1 [Example 2, 3-[6-(6-isopropylsulfanyl-pyridin-2-yl)-quinolin-2-yl]-propionic acid] | 200 to 2000 nM |
| O=C(O)COc1ccc2cc(-c3cccc(OC4CCCC4)n3)ccc2c1 [Example 3, [6-(6-cyclopentyloxy-pyridin-2-yl)-naphthalen-2-yloxy]-acetic acid] | 200 to 2000 nM |
| O=C(O)COc1ccc2cc(-c3cccnc3OC3CCCC3)ccc2c1 [Example 4, [6-(2-cyclopentyloxy-pyridin-3-yl)-naphthalen-2-yloxy]-acetic acid] | 2000 to 20000 nM |
| CC(C)Sc1ncccc1-c1ccc2cc(OCCCC(=O)O)ccc2c1 [Example 5, 4-[6-(2-isopropylsulfanyl-pyridin-3-yl)-naphthalen-2-yloxy]-butyric acid] | 200 to 2000 nM |
| O=C(O)CCC1CCc2cc(-c3cccc(OC4CCCC4)n3)ccc2N1 (stereo not drawn) [Example 11, 3-[6-(6-cyclopentyloxy-pyridin-2-yl)-1,2,3,4-tetrahydro-quinolin-2-yl]-propionic acid] | 200 to 2000 nM |
| CN1c2ccc(-c3cccc(OC4CCCC4)n3)cc2CCC1CCC(=O)O (stereo not drawn) [Example 12, 3-[6-(6-cyclopentyloxy-pyridin-2-yl)-1-methyl-1,2,3,4-tetrahydro-quinolin-2-yl]-propionic acid] | 200 to 2000 nM |
| O=C(O)CCCOc1c(F)cc(-c2cccc(OCc3ccccc3)c2)cc1F [Example 17, 4-(3′-benzyloxy-3,5-difluoro-biphenyl-4-yloxy)-butyric acid] | 2000 to 20000 nM |
| O=C(O)CCCOc1c(F)cc(-c2cccc(OC3CCC3)c2)cc1F [Example 21, 4-(3′-cyclobutoxy-3,5-difluoro-biphenyl-4-yloxy)-butyric acid] | < 200 nM |
| Fc1cc(-c2cccnc2SC2CCC2)cc(F)c1OCCCc1nnn[nH]1 [Example 25, 2-cyclobutylsulfanyl-3-{3,5-difluoro-4-[3-(1H-tetrazol-5-yl)propoxy]phenyl}pyridin] | 200 to 2000 nM |
| c1cnc(SC2CCC2)c(-c2ccc(CCCc3nnn[nH]3)cc2)c1 [Example 26, 2-cyclobutylsulfanyl-3-{4-[3-(1H-tetrazol-5-yl)propyl]phenyl}pyridine] | 200 to 2000 nM |
| O=C(O)CCCCc1c(F)cc(-c2cccc(OC3CCC3)n2)cc1F [Example 32, 5-[4-(6-cyclobutoxy-2-pyridyl)-2,6-difluoro-phenyl]pentanoic acid] | < 200 nM |
| O=C(O)CCCCc1c(F)cc(-c2cccc(OC3CCCC3)n2)cc1F [Example 33, 5-[4-(6-cyclopentoxy-2-pyridyl)-2,6-difluoro-phenyl]pentanoic acid] | < 200 nM |
| O=C(O)CCCCc1c(F)cc(-c2cccnc2SC2CCC2)cc1F [Example 35, 5-[4-(2-cyclobutylsulfanyl-3-pyridyl)-2,6-difluoro-phenyl]pentanoic acid] | < 200 nM |
| O=C(O)CCCCc1c(F)cc(-c2cccnc2SC2CCCC2)cc1F [Example 36, 5-[4-(2-cyclopentylsulfanyl-3-pyridyl)-2,6-difluoro-phenyl]pentanoic acid] | < 200 nM |
| O=C(O)CCCCc1c(F)cc(-c2cccnc2OC2CCCC2)cc1F [Example 37, 5-[4-(2-cyclopentoxy-3-pyridyl)-2,6-difluoro-phenyl]pentanoic acid] | < 200 nM |
| O=C(O)COCCc1c(F)cc(-c2cccnc2SC2CCC2)cc1F [Example 38, {2-[4-(2-cyclobutylsulfanyl-3-pyridyl)-2,6-difluoro-phenyl]ethoxy}acetic acid] | 200 to 2000 nM |
| CC(CCCC(=O)O)c1ccc(-c2cccnc2SC2CCC2)cc1 (stereo not drawn) [Example 39, 5-[4-(2-cyclobutylsulfanyl-3-pyridyl)phenyl]hexanoic acid] | < 200 nM |
| CC(CCCC(=O)O)c1ccc(-c2cccc(OC3CCC3)n2)cc1 (stereo not drawn) [Example 40, 5-[4-(6-cyclobutoxy-2-pyridyl)-phenyl]hexanoic acid] | < 200 nM |
| CC(CCCC(=O)O)c1c(F)cc(-c2cccc(OC3CCC3)n2)cc1F (stereo not drawn) [Example 41, 5-[4-(6-cyclobutoxy-2-pyridyl)-2,6-difluoro-phenyl]hexanoic acid] | < 200 nM |
| CCSc1ncccc1-c1cc(F)c(C(C)CCCC(=O)O)c(F)c1 (stereo not drawn) [Example 42, 5-[4-(2-ethylsulfanyl-3-pyridyl)-2,6-difluoro-phenyl]hexanoic acid] | < 200 nM |
| CCCSc1ncccc1-c1cc(F)c(C(C)CCCC(=O)O)c(F)c1 (stereo not drawn) [Example 43, 5-[2,6-difluoro-4-(2-propylsulfanyl-3-pyridyl)-phenyl]hexanoic acid] | < 200 nM |
| CC(C)Oc1ncccc1-c1cc(F)c(C(C)CCCC(=O)O)c(F)c1 (stereo not drawn) [Example 46, 5-[2,6-difluoro-4-(2-isopropoxy-3-pyridyl)phenyl]hexanoic acid] | < 200 nM |
| CC(CCCC(=O)O)c1c(F)cc(-c2cccnc2SC2CCC2)cc1F (stereo not drawn) [Example 48, 5-[4-(2-cyclobutylsulfanyl-3-pyridyl)-2,6-difluoro-phenyl]hexanoic acid] | < 200 nM |
| CC(CCCC(=O)O)c1c(F)cc(-c2cccnc2SC2CCCC2)cc1F (stereo not drawn) [Example 49, 5-[4-(2-cyclopentylsulfanyl-3-pyridyl)-2,6-difluoro-phenyl]hexanoic acid] | < 200 nM |
| CC(C)Sc1ncccc1-c1cc(F)c(C(C)CCCC(=O)O)c(F)c1 (stereo not drawn) [Example 50, 5-[2,6-difluoro-4-(2-isopropylsulfanyl-3-pyridyl)-phenyl]hexanoic acid] | < 200 nM |
| CC(CCCC(=O)O)c1c(F)cc(-c2cccnc2OC2CCCC2)cc1F (stereo not drawn) [Example 51, 5-[4-(2-cyclopentoxy-3-pyridyl)-2,6-difluoro-phenyl]hexanoic acid] | < 200 nM |

Continued, values first:

| EC50 | Structure (SMILES) |
| --- | --- |
| < 200 nM | CC(C)Sc1ncccc1-c1ccc2c(c1)CCC(CCC(=O)O)O2 (stereo not drawn) [Example 7, 3-[6-(2-isopropylsulfanyl-pyridin-3-yl)-chroman-2-yl]-propionic acid] |
| < 200 nM | CC(C)Sc1cccc(-c2ccc3c(c2)CCC(CCC(=O)O)O3)n1 (stereo not drawn) [Example 8, 3-[6-(6-isopropylsulfanyl-pyridin-2-yl)-chroman-2-yl]-propionic acid] |
| < 200 nM | O=C(O)CCC1CCc2cc(-c3cccc(OC4CCCC4)n3)ccc2O1 (stereo not drawn) [Example 9, 3-[6-(6-cyclopentyloxy-pyridin-2-yl)-chroman-2-yl]-propionic acid] |
| < 200 nM | O=C(O)CCC1CCc2cc(-c3cccnc3OC3CCCC3)ccc2O1 (stereo not drawn) [Example 10, 3-[6-(2-cyclopentyloxy-pyridin-3-yl)-chroman-2-yl]-propionic acid] |
| < 200 nM | CC(C)Oc1cccc(-c2cc(F)c(OCCCC(=O)O)c(F)c2)c1 [Example 18, 4-(3,5-difluoro-3′-isopropoxy-biphenyl-4-yloxy)-butyric acid] |
| < 200 nM | CCCOc1cccc(-c2cc(F)c(OCCCC(=O)O)c(F)c2)c1 [Example 19, 4-(3,5-difluoro-3′-propoxy-biphenyl-4-yloxy)-butyric acid] |
| < 200 nM | O=C(O)CCCOc1c(F)cc(-c2cccc(OCC3CC3)c2)cc1F [Example 20, 4-(3′-cyclopropylmethoxy-3,5-difluoro-biphenyl-4-yloxy)-butyric acid] |
| < 200 nM | CC1(C)Cc2cccc(-c3cc(F)c(OCCCC(=O)O)c(F)c3)c2O1 [Example 22, 4-[4-(2,2-dimethyl-2,3-dihydro-benzofuran-7-yl)-2,6-difluoro-phenoxy]-butyric acid] |
| < 200 nM | CC1(C)Oc2cccc(-c3cc(F)c(OCCCC(=O)O)c(F)c3)c2O1 [Example 23, 4-[4-(2,2-dimethyl-benzo[1,3]dioxol-4-yl)-2,6-difluoro-phenoxy]-butyric acid] |
| < 200 nM | O=C(O)CCCCc1ccc(-c2cccnc2SC2CCC2)cc1 [Example 27, 5-[4-(2-cyclobutylsulfanyl-3-pyridyl)phenyl]pentanoic acid] |
| < 200 nM | O=C(O)CCCCc1ccc(-c2cccc(SC3CCCC3)n2)cc1 [Example 28, 5-[4-(6-cyclopentylsulfanyl-2-pyridyl)phenyl]pentanoic acid] |
| < 200 nM | O=C(O)CCCCc1ccc(-c2cccnc2SC2CCCC2)cc1 [Example 29, 5-[4-(2-cyclopentylsulfanyl-3-pyridyl)phenyl]pentanoic acid] |
| < 200 nM | CCCSc1ncccc1-c1cc(F)c(CCCCC(=O)O)c(F)c1 [Example 31, 5-[2,6-difluoro-4-(2-propylsulfanyl-3-pyridyl)phenyl]pentanoic acid] |
| < 200 nM | O=C(O)CCCCc1c(F)cc(-c2cccc3c2OC(F)(F)O3)cc1F [Example 34, 5-[4-(2,2-difluoro-benzo[1,3]dioxol-4-yl)-2,6-difluoro-phenyl]pentanoic acid] |
